Data from patent publication US20250230193A1, “CYCLIC COMPOUND HAVING SELECTIVE KRAS INHIBITORY EFFECT ON HRAS AND NRAS” (CHUGAI SEIYAKU KABUSHIKI KAISHA, priority 2022, published 2025).

Experiments:
[1] = molecular target: GDP-bound HRAS wild-type protein (Homo sapiens, UniProt P01112); test: Binding to HRAS by surface plasmon resonance (SPR), Single Cycle Kinetics; conditions: KD ratio, GDP-bound HRAS wild-type vs GDP-bound KRAS wild-type, SPR
[2] = molecular target: GDP-bound NRAS wild-type protein (Homo sapiens, UniProt P01111); test: Binding to NRAS by surface plasmon resonance (SPR), Single Cycle Kinetics; conditions: KD ratio, GDP-bound NRAS wild-type vs GDP-bound KRAS wild-type, SPR
Chain of GDP-bound NRAS wild-type protein (P01111 whole entry): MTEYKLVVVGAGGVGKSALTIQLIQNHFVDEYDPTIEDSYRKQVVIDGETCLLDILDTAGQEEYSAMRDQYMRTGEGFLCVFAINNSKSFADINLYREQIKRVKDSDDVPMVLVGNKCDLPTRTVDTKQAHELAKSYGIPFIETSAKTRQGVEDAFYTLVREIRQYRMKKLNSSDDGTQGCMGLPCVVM

Chain of GDP-bound HRAS wild-type protein (P01112 whole entry): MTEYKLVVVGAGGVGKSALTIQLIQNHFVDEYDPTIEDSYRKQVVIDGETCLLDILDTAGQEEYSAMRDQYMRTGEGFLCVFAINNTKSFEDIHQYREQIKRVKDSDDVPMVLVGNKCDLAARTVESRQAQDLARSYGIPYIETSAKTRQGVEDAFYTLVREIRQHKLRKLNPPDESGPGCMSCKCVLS

SMILES	HRAS/KRAS (ratio of KD value with respect to HRAS to KD value with respect to KRAS) [1]	NRAS/KRAS (ratio of KD value with respect to NRAS to KD value with respect to KRAS) [2]
CCO[C@@H]1C[C@H]2C(=O)NC3(CC(F)(F)C3)C(=O)N(C)[C@@H](C3CCCC3)C(=O)N(C)[C@H](C(=O)N3CCOCC3)CC(=O)N(C)[C@@H](CC(C)C)C(=O)N[C@@H]([C@@H](C)CC)C(=O)N(C)CC(=O)N(C)[C@H]3CC=C(C)CN(C3=O)[C@@H](Cc3ccc(C(F)(F)F)cc3)C(=O)N(C)CC(=O)N[C@@H](CCc3cc(F)c(C(F)(F)F)c(F)c3)C(=O)N2C1 [PP0828]	C (A compound having a KD ratio of 0.1 or more and less than 3 is denoted as C)	C (A compound having a KD ratio of 0.1 or more and less than 3 is denoted as C)
CCO[C@@H]1C[C@H]2C(=O)NC3(CCC3)C(=O)N(C)[C@@H](C3CCCC3)C(=O)N(C)[C@H](C(=O)N3CCOCC3)CC(=O)N(C)[C@@H](CC(C)C)C(=O)N[C@@H]([C@@H](C)CC)C(=O)N(C)CC(=O)N(C)[C@H]3C[C@H]4C[C@H]4CN(C3=O)[C@@H](Cc3ccc(C(F)(F)F)cc3)C(=O)N(C)CC(=O)N[C@@H](CCc3cc(F)c(C(F)(F)F)c(F)c3)C(=O)N2C1 [PP0829]	C (A compound having a KD ratio of 0.1 or more and less than 3 is denoted as C)	B (a compound having 3 or more and less than 10 is denoted as B)
CCO[C@@H]1C[C@H]2C(=O)NC3(CCC3)C(=O)N(C)[C@@H](C3CCCC3)C(=O)N(C)[C@H](C(=O)N(C)C)CC(=O)N(C)[C@@H](CC)C(=O)N[C@@H]([C@@H](C)CC)C(=O)N(C)CC(=O)N(C)[C@H]3C[C@H]4C[C@H]4CN(C3=O)[C@@H](Cc3ccc(C(F)(F)F)cc3)C(=O)N(C)CC(=O)N[C@@H](CCc3cc(F)c(C(F)(F)F)c(F)c3)C(=O)N2C1 [PP0830]	C (A compound having a KD ratio of 0.1 or more and less than 3 is denoted as C)	C (A compound having a KD ratio of 0.1 or more and less than 3 is denoted as C)
CCO[C@@H]1C[C@H]2C(=O)NC3(CC(F)(F)C3)C(=O)N(C)[C@@H](C3CCCC3)C(=O)N(C)[C@H](C(=O)N3CCOCC3)CC(=O)N(C)[C@@H](CC(C)C)C(=O)N[C@@H]([C@@H](C)CC)C(=O)N(C)CC(=O)N(C)[C@H]3C[C@H]4C[C@H]4CN(C3=O)[C@@H](Cc3ccc(C(F)(F)F)cc3)C(=O)N(C)CC(=O)N[C@@H](CCc3cc(F)c(C(F)(F)F)c(F)c3)C(=O)N2C1 [PP0831]	C (A compound having a KD ratio of 0.1 or more and less than 3 is denoted as C)	C (A compound having a KD ratio of 0.1 or more and less than 3 is denoted as C)
CCO[C@@H]1C[C@H]2C(=O)NC3(CCC3)C(=O)N(C)[C@@H](C3CCCC3)C(=O)N(C)[C@H](C(=O)N3CCOCC3)CC(=O)N(C)[C@@H](CC(C)C)C(=O)N[C@@H]([C@@H](C)CC)C(=O)N(C)CC(=O)N(C)[C@H]3CC=CCN(C3=O)[C@@H](Cc3ccc(C(F)(F)F)cc3)C(=O)N(C)CC(=O)N[C@@H](CCc3cc(F)c(C(F)(F)F)c(F)c3)C(=O)N2C1 [PP0832]	C (A compound having a KD ratio of 0.1 or more and less than 3 is denoted as C)	C (A compound having a KD ratio of 0.1 or more and less than 3 is denoted as C)
CC[C@H](C)[C@@H]1NC(=O)[C@H](COC)N(C)C(=O)C[C@@H](C(=O)N2CCOCC2)N(C)C(=O)[C@H](C2CCCC2)N(C)C(=O)C2(CCC2)NC(=O)[C@@H]2CC(F)(F)CN2C(=O)[C@H](CCc2cc(F)c(C(F)(F)F)c(F)c2)NC(=O)CN(C)C(=O)[C@H](Cc2ccc(C(F)(F)F)cc2)N2CCCCC[C@@H](C2=O)N(C)C(=O)CN(C)C1=O [PP0834]	B (a compound having 3 or more and less than 10 is denoted as B)	A (a compound having 10 or more and less than 20 is denoted as A)
CC[C@H](C)[C@@H]1NC(=O)[C@H](COC)N(C)C(=O)C[C@@H](C(=O)N2CCOCC2)N(C)C(=O)[C@H](C2CCCC2)N(C)C(=O)C2(CCC2)NC(=O)[C@@H]2C[C@H](OC)CN2C(=O)[C@H](CCc2cc(F)c(C(F)(F)F)c(F)c2)NC(=O)CN(C)C(=O)[C@H](Cc2ccc(C(F)(F)F)cc2)N2CCCCC[C@@H](C2=O)N(C)C(=O)CN(C)C1=O [PP0836]	B (a compound having 3 or more and less than 10 is denoted as B)	B (a compound having 3 or more and less than 10 is denoted as B)
CC[C@H](C)[C@@H]1NC(=O)[C@H](COC)N(C)C(=O)C[C@@H](C(=O)N2CCOCC2)N(C)C(=O)[C@H](C2CCCC2)N(C)C(=O)C2(CCC2)NC(=O)[C@@H]2C[C@@H](OC)CN2C(=O)[C@H](CCc2cc(F)c(C(F)(F)F)c(F)c2)NC(=O)CN(C)C(=O)[C@H](Cc2ccc(C(F)(F)F)cc2)N2CCCCC[C@@H](C2=O)N(C)C(=O)CN(C)C1=O [PP0837]	B (a compound having 3 or more and less than 10 is denoted as B)	B (a compound having 3 or more and less than 10 is denoted as B)
CCCO[C@@H]1C[C@H]2C(=O)NC3(CCC3)C(=O)N(C)[C@@H](C3CCCC3)C(=O)N(C)[C@H](C(=O)N3CCOCC3)CC(=O)N(C)[C@@H](COC)C(=O)N[C@@H]([C@@H](C)CC)C(=O)N(C)CC(=O)N(C)[C@H]3CCCCCN(C3=O)[C@@H](Cc3ccc(C(F)(F)F)cc3)C(=O)N(C)CC(=O)N[C@@H](CCc3cc(F)c(C(F)(F)F)c(F)c3)C(=O)N2C1 [PP0838]	B (a compound having 3 or more and less than 10 is denoted as B)	B (a compound having 3 or more and less than 10 is denoted as B)
CC[C@H](C)[C@@H]1NC(=O)[C@H](COC)N(C)C(=O)C[C@@H](C(=O)N2CCOCC2)N(C)C(=O)[C@H](C2CCCC2)N(C)C(=O)C2(CCC2)NC(=O)[C@@H]2C[C@@H](OCC(C)C)CN2C(=O)[C@H](CCc2cc(F)c(C(F)(F)F)c(F)c2)NC(=O)CN(C)C(=O)[C@H](Cc2ccc(C(F)(F)F)cc2)N2CCCCC[C@@H](C2=O)N(C)C(=O)CN(C)C1=O [PP0839]	B (a compound having 3 or more and less than 10 is denoted as B)	B (a compound having 3 or more and less than 10 is denoted as B)
CC[C@H](C)[C@@H]1NC(=O)[C@H](COC)N(C)C(=O)C[C@@H](C(=O)N2CCOCC2)N(C)C(=O)[C@H](C2CCCC2)N(C)C(=O)C2(CCC2)NC(=O)[C@@H]2CCN2C(=O)[C@H](CCc2cc(F)c(C(F)(F)F)c(F)c2)NC(=O)CN(C)C(=O)[C@H](Cc2ccc(C(F)(F)F)cc2)N2CCCCC[C@@H](C2=O)N(C)C(=O)CN(C)C1=O [PP0840]	B (a compound having 3 or more and less than 10 is denoted as B)	B (a compound having 3 or more and less than 10 is denoted as B)
CCO[C@@H]1C[C@H]2C(=O)NC3(CCCC3)C(=O)N(C)[C@@H](C3CCCC3)C(=O)N(C)[C@H](C(=O)N3CCOCC3)CC(=O)N(C)[C@@H](COC)C(=O)N[C@@H]([C@@H](C)CC)C(=O)N(C)CC(=O)N(C)[C@H]3CCCCCN(C3=O)[C@@H](Cc3ccc(C(F)(F)F)cc3)C(=O)N(C)CC(=O)N[C@@H](CCc3cc(F)c(C(F)(F)F)c(F)c3)C(=O)N2C1 [PP0841]	B (a compound having 3 or more and less than 10 is denoted as B)	B (a compound having 3 or more and less than 10 is denoted as B)
CCO[C@@H]1C[C@H]2C(=O)NC3(CC=CC3)C(=O)N(C)[C@@H](C3CCCC3)C(=O)N(C)[C@H](C(=O)N3CCOCC3)CC(=O)N(C)[C@@H](COC)C(=O)N[C@@H]([C@@H](C)CC)C(=O)N(C)CC(=O)N(C)[C@H]3CCCCCN(C3=O)[C@@H](Cc3ccc(C(F)(F)F)cc3)C(=O)N(C)CC(=O)N[C@@H](CCc3cc(F)c(C(F)(F)F)c(F)c3)C(=O)N2C1 [PP0842]	B (a compound having 3 or more and less than 10 is denoted as B)	B (a compound having 3 or more and less than 10 is denoted as B)
CCO[C@@H]1C[C@H]2C(=O)NC3(CC(F)(F)C3)C(=O)N(C)[C@@H](C3CCCC3)C(=O)N(C)[C@H](C(=O)N3CCOCC3)CC(=O)N(C)[C@@H](COC)C(=O)N[C@@H]([C@@H](C)CC)C(=O)N(C)CC(=O)N(C)[C@H]3CCCCCN(C3=O)[C@@H](Cc3ccc(C(F)(F)F)cc3)C(=O)N(C)CC(=O)N[C@@H](CCc3cc(F)c(C(F)(F)F)c(F)c3)C(=O)N2C1 [PP0843]	B (a compound having 3 or more and less than 10 is denoted as B)	B (a compound having 3 or more and less than 10 is denoted as B)
CCO[C@@H]1C[C@H]2C(=O)NC3(CC(C)(C)C3)C(=O)N(C)[C@@H](C3CCCC3)C(=O)N(C)[C@H](C(=O)N3CCOCC3)CC(=O)N(C)[C@@H](COC)C(=O)N[C@@H]([C@@H](C)CC)C(=O)N(C)CC(=O)N(C)[C@H]3CCCCCN(C3=O)[C@@H](Cc3ccc(C(F)(F)F)cc3)C(=O)N(C)CC(=O)N[C@@H](CCc3cc(F)c(C(F)(F)F)c(F)c3)C(=O)N2C1 [PP0844]	B (a compound having 3 or more and less than 10 is denoted as B)	B (a compound having 3 or more and less than 10 is denoted as B)
CC[C@H](C)[C@@H]1NC(=O)[C@H](COC)N(C)C(=O)C[C@@H](C(=O)N2CCOCC2)N(C)C(=O)[C@H](C2CCCC2)N(C)C(=O)C2(CCCC2)NC(=O)[C@@H]2CCCN2C(=O)[C@H](CCc2cc(F)c(C(F)(F)F)c(F)c2)NC(=O)CN(C)C(=O)[C@H](Cc2ccc(C(F)(F)F)cc2)N2CCCCC[C@@H](C2=O)N(C)C(=O)CN(C)C1=O [PP0845]	B (a compound having 3 or more and less than 10 is denoted as B)	B (a compound having 3 or more and less than 10 is denoted as B)
